Source: patent US6653258B1 (priority 1987, dated 2003)

Experiments:
[1] = system: Erysiphe graminis; assay: Foliar fungal disease test on Erysiphe graminis, plants inoculated 24 hours before treatment (Table V); type: in vivo; set-up: key: 4: no disease; 3: trace −5% of disease on untreated plants; 6-25% of disease on untreated plants; 1: 26-59% of disease on untreated plants; 60-100% of disease on untreated plants; settings: plants inoculated 24 hours before treatment
[2] = system: foliar fungal diseases of plants; type: in vivo; set-up: key to disease control grading, […] (VINE): 4: no disease; 3: trace −5% of disease on untreated plants; key to disease control grading, PUCCINIA RECONDITA (WHEAT) / disease control grading, VENTURIA INAEQUALIS (APPLE) / disease control grading, CERCOSPORA ARACHIDICOLA (PEANUT) / disease control grading, PH[…] (TOMATO) / disease control grading, P[…] (RICE): 4: no disease; 3: trace −5% of disease on untreated plants; 6-25% of disease on untreated plants; 1: 26-59% of disease on untreated plants; 60-100% of disease on untreated plants; settings: applied to soil (roots) and foliage one or two days before inoculation; for disease control grading, CERCOSPORA ARACHIDICOLA (PEANUT): Cercospora arachidicola on peanut; for disease control grading, P[…] (RICE): P[…] on rice; for disease control grading, PH[…] (TOMATO): Ph[…] on tomato; for disease control grading, PUCCINIA RECONDITA (WHEAT): Puccinia recondita on wheat; for disease control grading, VENTURIA INAEQUALIS (APPLE): Venturia inaequalis on apple; for disease control grading, […] (VINE): […] on vine

Row | SMILES | disease control grading, ERYSIPHE GRAMINIS (BARLEY) [1] | disease control grading, CERCOSPORA ARACHIDICOLA (PEANUT) [2] | disease control grading, P[…] (RICE) [2] | disease control grading, PH[…] (TOMATO) [2] | disease control grading, PUCCINIA RECONDITA (WHEAT) [2] | disease control grading, VENTURIA INAEQUALIS (APPLE) [2] | disease control grading, […] (VINE) [2]
1 | CO/C=C(/C(=O)OC)c1ccccc1COc1ccccc1Cl [157 (Table I)] | 4 | 4 | 4 | 3 (trace −5% of disease on untreated plants) | 4 | 4 | 4
2 | CO/C=C(/C(=O)OC)c1ccccc1COc1cccc([N+](=O)[O-])c1 [161 (Table I)] | 3 (trace −5% of disease on untreated plants) | 3 (trace −5% of disease on untreated plants) | 0 (60-100% of disease on untreated plants) | 1 (26-59% of disease on untreated plants) | 3 (trace −5% of disease on untreated plants) | 4 | 4
3 | CO/C=C(/C(=O)OC)c1ccccc1COc1cccc(/N=C/c2ccccc2)c1 [180 (Table I)] | 0 (60-100% of disease on untreated plants) | 4 | 2 (6-25% of disease on untreated plants) | 4 | 3 (trace −5% of disease on untreated plants) | 0 (60-100% of disease on untreated plants) | 4
4 | CO/C=C(/C(=O)OC)c1ccccc1COc1cccc(Oc2ccccc2OC)c1 [173 (Table I)] | 3 (trace −5% of disease on untreated plants) | 4 | 0 (60-100% of disease on untreated plants) | 4 | 4 | 4 | 4
5 | CO/C=C(/C(=O)OC)c1ccccc1COc1cccc(C=O)c1 [175 (Table I)] | 1 (26-59% of disease on untreated plants) | 1 (26-59% of disease on untreated plants) | 0 (60-100% of disease on untreated plants) | 4 | 3 (trace −5% of disease on untreated plants) | 4 | 4
6 | CO/C=C(/C(=O)OC)c1ccccc1COc1cccc(Br)n1 [176 (Table I)] | 4 | – | 4 | 4 | 4 | 4 | 4
7 | CO/C=C(/C(=O)OC)c1ccccc1COc1cccc(-c2cccc(OC)c2)c1 [172 (Table I)] | 4 | 4 | 0 (60-100% of disease on untreated plants) | 4 | 4 | 4 | 4
8 | CO/C=C(/C(=O)OC)c1ccccc1COc1cccc(OC)c1 [160 (Table I)] | 4 | 3 (trace −5% of disease on untreated plants) | 3 (trace −5% of disease on untreated plants) | 4 | 4 | 4 | 4
9 | CO/C=C(/C(=O)OC)c1ccccc1COc1cccc(C)c1 [164 (Table I)] | 4 | 4 | 4 | 3 (trace −5% of disease on untreated plants) | 4 | 4 | 4
10 | CO/C=C(/C(=O)OC)c1ccccc1COc1ccc(Cl)cc1Cl [43 (Table I)] | 4 | 4 | 4 | 4 | 4 | 4 | 4
11 | CO/C=C(/C(=O)OC)c1ccccc1COc1ccccc1[N+](=O)[O-] [33 (Table I)] | 2 (6-25% of disease on untreated plants) | 4 | 4 | 3 (trace −5% of disease on untreated plants) | 4 | 4 | 4
12 | CO/C=C(/C(=O)OC)c1ccccc1COc1cccc(C(C)(C)C)c1 [29 (Table I)] | 2 (6-25% of disease on untreated plants) | 4 | 4 | 4 | 4 | 4 | 4
13 | CO/C=C(/C(=O)OC)c1ccccc1COc1cccc(Oc2ccccc2)c1 [165 (Table I)] | 4 | 0 (60-100% of disease on untreated plants) | 4 | 4 | 4 | 0 (60-100% of disease on untreated plants) | 4
14 | CCOc1cc(OCc2ccccc2/C(=C\OC)C(=O)OC)ccc1OC [170 (Table I)] | 4 | 4 | 3 (trace −5% of disease on untreated plants) | 4 | 0 (60-100% of disease on untreated plants) | 4 | 4
15 | CO/C=C(/C(=O)OC)c1ccccc1COc1cc(Cl)ccc1Cl [158 (Table I)] | 4 | 4 | 4 | 3 (trace −5% of disease on untreated plants) | 4 | 4 | 4
16 | CO/C=C(/C(=O)OC)c1ccccc1COc1cccc(Oc2ccccc2Cl)c1 [182 (Table I)] | 4 | 4 | 4 | 4 | 4 | 3 (trace −5% of disease on untreated plants) | 4
